# Source: patent publication EP4755885A1 (Shanghai Hansoh Biomedical Co., Ltd., priority 2023, dated 2025)
# Tests used:
# [1] = Pharmacokinetic evaluation in mice, oral administration; assay type: in vivo, Balb/c mice; conditions: p.o. 5 mg/kg, plasma; for AUC(0-inf) / AUC(0-t) / Cmax / Tmax / MRT inf: mouse, in vivo, po; for MRT inf: read-out: MRT 0-∞
# Experimental: Balb/c mice were used as test animals to study the pharmacokinetic behavior of the compound of the present invention in mice (plasma) at a dose of 5 mg/kg administered orally and 1 mg/kg administered intravenously.
# Balb/c mice, 3 per group, male.
# (§1) Preparation of drug for oral administration: 10%PEG400/10%PG/80% glycine buffer (100 mM glycine, 64 Mm NaOH, […]) buffer.
# 10 ml of PEG400, 10 ml of PG, and 80 ml of (100 mM glycine, 64 Mm NaOH, pH = 9) were measured into a 100 ml volumetric flask, vortexed, mixed homogeneously, and sonicated to obtain a clear solution.
# Single PK: An example compound was weighed into a 4 mL glass bottle. The solution was added, and sonication was performed for 10 min to obtain a colorless clear solution having a concentration of 0.5 mg/mL.
# The solution was added, and sonication was performed for 10 min to obtain a colorless clear solution having a concentration of 0.5 mg/mL.
# Three Balb/c mice, male, respectively administered p.o. after fasting overnight, at a dose of 5 mg/kg and in an administration volume of 10 mL/kg.
# The blood samples were placed in EDTA-K2 anticoagulant tubes and centrifuged at 6000 rpm at 4°C for 6 min to separate plasma, which was stored at -80°C. The mice were fed 4 h after administration.
# (§2) • 1) 40 µL of a plasma sample was added with 160 µL of acetonitrile for precipitation, and after mixing, the mixture was centrifuged at 3500 × g for 5 to 20 min. • 2) The supernatant solution after treatment was taken for LC/MS/MS analysis of the concentration of the test compound. The LC/MS/MS analysis instrument was AB Sciex API 4000 Qtrap.
# • Liquid phase condition: Shimadzu LC-20AD pump • Chromatographic column: Agilent ZORBAX XDB-C18 (50×2.1 mm, 3.5 µm) Mobile phase: Solution A was 0.1% formic acid aqueous solution, and Solution B was acetonitrile • Flow rate: 0.4 mL/min • Elution time: 0-4.0 min, the eluent was as follows:
# Main pharmacokinetic parameters were calculated using WinNonlin 6.1.
# human GLP-1 receptor [2] = target: T1, human GLP-1 receptor (Homo sapiens, UniProt P43220); experiment: cAMP production in cell line stably transformed with human GLP1 receptor, 30 min co-incubation (HTRF); assay type: cell-based; conditions: CHO-K1/GLP-1R/CRE-luc cells, stimulation for 0.5 h, read-out: EC50
# T1 construct: expressed in transfected cells
# Experimental: (§3) The purpose of this assay example is to test the ability of the compound to activate the human GLP-1 receptor on cell surface. The EC50 for stimulated cAMP production after activation characterizes the ability of the compound to activate the human GLP-1 receptor.
# In this experiment, the compound and cells were co-incubated for 30 min.
# (§4) Frozen cell line CHO-K1/GLP-1R/CRE-luc stably transformed with human GLP1 receptor was removed from a liquid nitrogen tank, and was placed in a 37°C water bath for rapid thawing. The cells were resuspended in DMEM/F12 medium, and after centrifugation, were washed once. The cells were resuspended in an experimental buffer, i.e., DMEM/F12 medium containing 0.1% casein. After centrifugation, cell density was adjusted using the experimental buffer. The cells were plated onto a 384-well plate at a density of 1500 cells/5 µL/well. Then, each well was added with 2.5 µL of IBMX working solution prepared with the buffer, the final concentration of IBMX being 0.5 mM, and 2.5 µL of a serially diluted compound sample (starting from […], 3-fold dilution, 12 concentrations). The plate was centrifuged at 1000 rpm for 1 min, and was stood for incubation at 37°C for 0.5 h. Determination was performed using the Cisbio cAMP - Gs Dynamic kit. cAMP-d2 and anti-cAMP-Eu3+-Cryptate were diluted 18-fold and 20-fold respectively with cAMP Lysis & Detection Buffer, and were respectively mixed homogeneously. Each well was added with 5 µL of diluted cAMP-d2 solution, and the plate was centrifuged at 1000 rpm for 1 min, and shaken for 30 seconds for homogeneous mixing. Then, each well was added with 5 µL of diluted anti-cAMP-Eu3+-Cryptate solution, and the plate was centrifuged at 1000 rpm for 1 min and was incubated in the dark at room temperature for 1 h. HTRF signals were read using the Biotek Synergy H1 microplate reader, the excitation wavelength being 320 nm and the emission wavelengths being 620 nm and 665 nm.
# (§5) The signal-to-signal ratio was calculated (665 nm/620 nm * 10,000). Nonlinear fitting between the signal-to-signal ratio and the sample concentration was performed in GraphPad Prism 10 using a four-parameter equation to obtain the EC50 value.
# human GLP-1 receptor [3] = target: T1, human GLP-1 receptor; experiment: cAMP production in cell line stably transformed with human GLP1 receptor, 2 h co-incubation (HTRF); assay type: cell-based; conditions: CHO-K1/GLP-1R/CRE-luc cells, stimulation for 2 h, read-out: EC50
# Experimental: as §3
# In this experiment, the compound and cells were co-incubated for 2 h.
# as §4, with “for 2” for “for 0.5”
# as §5
# [4] = Pharmacokinetic evaluation in beagles, oral administration; assay type: in vivo; conditions: dog, po, p.o. 2 mg/kg, plasma; for Cmax: read-out: Cmax; for MRT inf: read-out: MRT 0-∞; for Tmax: read-out: tmax
# Experimental: Beagles were used as test animals to study the pharmacokinetic behavior of the compound of the present invention, administered orally at a dose of 2 mg/kg, in beagles (plasma).
# Beagles, 3 per group, male.
# as §1
# Single PK: The compound of the present invention was weighed into a 100 mL glass bottle, and the solution was added. The pH was first adjusted with 1 M NaOH until the compound dissolves to obtain a clear solution, and then the pH was readjusted to pH 9.0-9.5 with 1 M HCl. Sonication was performed for 10 min to obtain a colorless clear solution having a concentration of 0.4 mg/mL.
# Three beagles, male, respectively administered p.o. after fasting overnight, at a dose of 2 mg/kg and in an administration volume of 5 mL/kg.
# Blood collection: 0.3 mL of blood was collected from the forelimb vein of the beagles before administration and at 0.25, 0.5, 1, 2, 4, 6, 8, and 24 h after administration. The blood samples were placed in EDTA-K2 anticoagulant tubes and centrifuged at 6000 rpm at 4°C for 6 min to separate plasma, which was stored at -80°C. The beagles were fed 4 h after administration.
# as §2
# • Liquid phase condition: Shimadzu LC-20AD pump • Chromatographic column: Agilent ZORBAX XDB-C18 (50×2.1 mm, 3.5 µm) Mobile phase: Solution A was 0.1% formic acid aqueous solution, and Solution B was acetonitrile • Flow rate: 0.4 mL/min • Elution time: 0-4.0 min, the eluent was as follows: […]
# [5] = not marked single PK (cassette PK)
# T1 sequence (P43220 24-463): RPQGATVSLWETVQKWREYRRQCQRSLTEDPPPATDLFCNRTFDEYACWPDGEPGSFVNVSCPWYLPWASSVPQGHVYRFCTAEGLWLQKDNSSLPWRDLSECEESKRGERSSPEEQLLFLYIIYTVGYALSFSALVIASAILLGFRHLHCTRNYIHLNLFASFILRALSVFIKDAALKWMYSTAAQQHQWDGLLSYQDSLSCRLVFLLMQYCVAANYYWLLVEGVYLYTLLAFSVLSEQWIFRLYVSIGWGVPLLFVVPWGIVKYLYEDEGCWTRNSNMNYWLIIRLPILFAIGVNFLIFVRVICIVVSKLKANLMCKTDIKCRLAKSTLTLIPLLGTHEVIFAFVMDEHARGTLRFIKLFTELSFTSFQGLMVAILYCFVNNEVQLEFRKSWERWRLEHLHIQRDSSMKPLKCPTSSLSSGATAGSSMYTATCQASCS
structure (smiles),measurement,setting,value
Cc1cc(-n2nc3c(c2-n2ccn(-c4ccc(CC(=O)N(C)C)cc4F)c2=O)[C@H](C)N(C(=O)c2cc4cc([C@H]5CCOC(C)(C)C5)ccc4n2[C@@]2(c4noc(=O)[nH]4)C[C@@H]2C)CC3)cc(C)c1F [Example 7],AUC(0-inf),[1]; [5],10800 ng·h/mL
same,AUC(0-t),[1]; [5],10300 ng·h/mL
same,Cmax,[1]; [5],2970 ng/mL
same,Tmax,[1]; [5],0.5 h
same,MRT inf,[1]; [5],2.8 h
same,tl/2,[1]; [5],1.6 h
same,EC50,human GLP-1 receptor [2],0.3 nM
Cc1cc(-n2nc3c(c2-n2ccn(-c4ccc5c(c4)OCc4nnc(C)n4-5)c2=O)[C@H](C)N(C(=O)c2cc4cc([C@H]5CCOC(C)(C)C5)ccc4n2[C@@]2(c4noc(=O)[nH]4)C[C@@H]2C)CC3)cc(C)c1F [Example 19],EC50,human GLP-1 receptor [2],0.88 nM
Cc1cc(-n2nc3c(c2-n2ccn(-c4cc5c6c(c4)OCC(=O)N6CCC5)c2=O)[C@H](C)N(C(=O)c2cc4cc([C@H]5CCOC(C)(C)C5)ccc4n2[C@@]2(c4noc(=O)[nH]4)C[C@@H]2C)CC3)cc(C)c1F [Example 41],EC50,human GLP-1 receptor [2],0.9 nM
[2H]C([2H])([2H])N1C(=O)C2CC2c2cc(-n3ccn(-c4c5c(nn4-c4cc(C)c(F)c(C)c4)CCN(C(=O)c4cc6cc([C@H]7CCOC(C)(C)C7)ccc6n4[C@@]4(c6noc(=O)[nH]6)C[C@@H]4C)[C@H]5C)c3=O)ccc21 (some centres unmarked) [Example 61],EC50,human GLP-1 receptor [2],1.39 nM
[2H]C([2H])([2H])N1C(=O)C2(CC2)c2cc(-n3ccn(-c4c5c(nn4-c4cc(C)c(C#N)c(C)c4)CCN(C(=O)c4cc6cc([C@H]7CCOC(C)(C)C7)ccc6n4[C@@]4(c6noc(=O)[nH]6)C[C@@H]4C)[C@H]5C)c3=O)ccc21 [Example 162],EC50,human GLP-1 receptor [2],0.25 nM
same,EC50,human GLP-1 receptor [3],0.1 nM
"[2H]C([2H])([2H])n1nc2c3c(c(-n4ccn(-c5c6c(nn5-c5cc(C)c(F)c(C)c5)CCN(C(=O)c5cc7cc([C@H]8CCOC(C)(C)C8)ccc7n5[C@@]5(c7noc(=O)[nH]7)C[C@@H]5COC5CC5)[C@H]6C)c4=O)ccc31)OCCC2 [Example 285, 3-((1S,2S)-2-(cyclopropyloxymethyl)-1-(5-((S)-2,2-dimethyltetrahydro-2H-pyran-4-yl)-2-((S)-2-(4-fluoro-3,5-dimethylphenyl)-4-methyl-3-(3-(2-(methyl-d3)-2,7,8,9-tetrahydrooxahepta[4,3,2-cd]indazol-5-yl)-2-carbonyl-2,3-dibydro-1H-imidazol-1-yl)-4,5,6,7-tetrahydro-2H-pyrazolo[4,3-c]pyridine-5-carbonyl)-1H-indol-1-yl)cyclopropyl)-1,2,4-oxadiazol-5(4H)-one]",AUC(0-inf),"[4]; male, beagle",19400 ng·h/mL
same,half-life,"[4]; male, beagle",4.1 h
same,AUC(0-t),"[4]; male, beagle, read-out: AUC 0-t",19200 ng·h/mL
same,Cmax,"[4]; male, beagle",3600 ng/mL
same,MRT inf,"[4]; male, beagle",5.3 h
same,Tmax,"[4]; male, beagle",1.5 h
same,EC50,human GLP-1 receptor [2],0.71 nM
same,EC50,human GLP-1 receptor [3],0.09 nM
"[2H]C([2H])([2H])n1nc2c3c(c(-n4ccn(-c5c6c(nn5-c5cc(C)c(F)c(C)c5)CCN(C(=O)c5cc7cc([C@H]8CCOC(C)(C)C8)ccc7n5[C@@]5(c7noc(=O)[nH]7)C[C@@H]5C#C)[C@H]6C)c4=O)ccc31)OCCC2 [Example 287, 3-((1S,2R)-1-(5-((S)-2,2-dimethyltetrahydro-2H-pyran-4-yl)-2-((S)-2-(4-fluoro-3,5-dimethylphenyl)-4-methyl-3-(3-(2-(methyl-d3)-2,7,8,9-tetrahydrooxaheptano[4,3,2-cd]indazol-5-yl)-2-carbonyl-2,3-dihydro-1H-imidazol-1-yl)-4,5,6,7-tetrahydro-2H-pyrazolo[4,3-c]pyridine-5-carbonyl)-1H-indol-1-yl)-2-ethynylcyclopropyl)-1,2,4-oxadiazol-5(4H)-one]",AUC(0-inf),[1]; single PK,28000 ng·h/mL
same,AUC(0-t),[1]; single PK,27900 ng·h/mL
same,Cmax,[1]; single PK,5320 ng/mL
same,Tmax,[1]; single PK,1 h
same,MRT inf,[1]; single PK,4.2 h
same,tl/2,[1]; single PK,3.0 h
same,AUC(0-inf),[4],17200 ng·h/mL
same,AUC(0-t) at 24 h,[4],17000 ng·h/mL
same,half-life,[4],3.7 h
same,Cmax,[4],1880 ng/mL
same,MRT inf,[4],6.1 h
same,Tmax,[4],2.3 h
same,EC50,human GLP-1 receptor [2],0.9 nM
Cc1cc(-n2nc3c(c2-n2ccn(-c4ccc5c(c4F)CCc4nnc(C)n4-5)c2=O)[C@H](C)N(C(=O)c2cc4cc([C@H]5CCOC(C)(C)C5)ccc4n2[C@@]2(c4noc(=O)[nH]4)C[C@@H]2C)CC3)cc(C)c1F [Example 339],EC50,human GLP-1 receptor [2],0.51 nM
Cc1cc(-n2nc3c(c2-n2ccn(-c4ccc5c(c4)CCc4nnnn4-5)c2=O)[C@H](C)N(C(=O)c2cc4cc([C@H]5CCOC(C)(C)C5)ccc4n2[C@@]2(c4noc(=O)[nH]4)C[C@@H]2C)CC3)cc(C)c1F [Example 342],EC50,human GLP-1 receptor [2],1.5 nM
